These results are taken from patent publication US9403774B2, “Guanidine and amine substituted tetrahydroisoquinoline compounds as factor xia inhibitors” (BRISTOL-MYERS SQUIBB COMPANY, priority 2012, dated 2016).

Where a name gives a salt, the structure may show the parent alone.

One may read the Ki as the dissociation constant of the complex between target and ligand, obtained from inhibition or displacement. The low end stands for tighter binding, the high end for weaker binding.

For this assay, the target named is purified human Factor XIa (Homo sapiens (Human), UniProt P03951). Description: Factor XIa assay (chromogenic substrate S-2366 hydrolysis). The assay is classed as biochemical. Conditions: substrate S-2366, pH 7.4. As for the experimental part: The effectiveness of compounds of the present invention as inhibitors of the coagulation factors XIa, VIIa, IXa, Xa, XIIa, plasma kallikrein or thrombin, can be determined using a relevant purified serine protease, respectively, and an appropriate synthetic substrate. The rate of hydrolysis of the chromogenic or fluorogenic substrate by the relevant serine protease was measured both in the absence and presence of compounds of the present invention. […] A decrease in the rate of absorbance or fluorescence change in the presence of inhibitor is indicative of enzyme inhibition. Such methods are known to one skilled in the art. The results of this assay are expressed as the inhibitory constant, Ki.
purified human Factor XIa, sequence (P03951 388-625): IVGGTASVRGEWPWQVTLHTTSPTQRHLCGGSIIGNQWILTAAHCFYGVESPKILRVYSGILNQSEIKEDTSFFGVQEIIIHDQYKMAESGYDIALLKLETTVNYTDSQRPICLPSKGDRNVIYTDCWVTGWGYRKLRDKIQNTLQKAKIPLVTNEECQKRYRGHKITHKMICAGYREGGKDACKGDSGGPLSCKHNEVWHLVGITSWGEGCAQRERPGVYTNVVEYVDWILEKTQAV
purified human Factor XIa, sequence (P03951 19-387 partner): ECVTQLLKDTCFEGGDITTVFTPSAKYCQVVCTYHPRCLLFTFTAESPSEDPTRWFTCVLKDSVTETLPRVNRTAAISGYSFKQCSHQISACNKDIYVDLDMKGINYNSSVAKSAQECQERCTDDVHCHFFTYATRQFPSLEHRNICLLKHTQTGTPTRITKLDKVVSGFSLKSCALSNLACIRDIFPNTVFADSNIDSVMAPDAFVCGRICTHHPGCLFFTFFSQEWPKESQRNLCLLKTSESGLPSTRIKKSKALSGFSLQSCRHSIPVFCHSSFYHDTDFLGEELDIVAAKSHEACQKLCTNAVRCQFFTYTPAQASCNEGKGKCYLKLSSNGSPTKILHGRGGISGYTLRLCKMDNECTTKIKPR
Factor XIa determinations were made in 50 mM HEPES buffer at pH 7.4 containing 145 mM NaCl, 5 mM KCl, and 0.1% PEG 8000 (polyethylene glycol; JT Baker or Fisher Scientific). Determinations were made using purified human Factor XIa at a final concentration of 75-200 pM (Haematologic Technologies) and the synthetic substrate S-2366 (pyroGlu-Pro-Arg-pNA; CHROMOGENIX® or AnaSpec) at a concentration of 0.0002-0.001 M.
The Michaelis constant, Km, for substrate hydrolysis by each protease, was determined at 25° C. using the method of Lineweaver and Burk. Values of Ki were determined by allowing the protease to react with the substrate in the presence of the inhibitor. Reactions were allowed to go for periods of 20-180 minutes (depending on the protease) and the velocities (rate of absorbance or fluorescence change versus time) were measured. The following relationships were used to calculate Ki values: (vo−vs)/vs=I/(Ki(1+S/Km)) for a competitive inhibitor with one binding site; or vs/vo=A+((B−A)/1+((IC50/(I)n))); and Ki═IC50/(1+S/Km) for a competitive inhibitor where: […]
As to `NC[C@H]1CC[C@H](C(=O)N2CCc3ccccc3[C@H]2C(=O)Nc2ccc(C(=O)O)cc2)CC1` [Example 32, 4-((S)-2-((1r,4S)-4-(aminomethyl)cyclohexanecarbonyl)-1,2,3,4-tetrahydroisoquinoline-1-carboxamido)benzoic acid, TFA salt], the affinity, expressed as Ki, was 84.6 nM.
`CC1(C)Cc2c(-c3ccc4ncccc4c3)cccc2C(C(=O)Nc2ccc(C(=O)O)cc2)N1C(=O)[C@H]1CC[C@H](CN)CC1` (stereo partly drawn) [Example 26] came in with a Ki of 48.3 nM.
As for `COC1CCN(c2cccc3c2CCN(C(=O)c2ccc(N)cc2)C3C(=O)Nc2ccc(C(=O)O)cc2)CC1` (stereo not drawn) [Example 1, 4-(2-(4-aminobenzoyl)-5-(4-methoxypiperidin-1-yl)-1,2,3,4-tetrahydroisoquinoline-1-carboxamido)benzoic acid, bis-TFA salt], the figure is 542 nM; as for `CC1(C)Cc2c(-c3ccc4c(c3)OCO4)cccc2C(C(=O)Nc2ccc(C(=O)O)cc2)N1C(=O)[C@H]1CC[C@H](CN)CC1` (stereo partly drawn) [Example 16], 166 nM; as for `CNC(=O)c1ccc(-c2cccc3c2CCN(C(=O)[C@H]2CC[C@H](CN)CC2)C3C(=O)Nc2ccc(C(=O)O)cc2)cc1` (stereo partly drawn) [Example 4, 4-(2-((1r,4r)-4-(aminomethyl)cyclohexanecarbonyl)-5-(4-(methylcarbamoyl)phenyl)-1,2,3,4-tetrahydroisoquinoline-1-carboxamido)benzoic acid, TFA Salt], less than 5 nM.
As for `CC1(C)Cc2c(-c3cc4ccccc4s3)cccc2C(C(=O)Nc2ccc(C(=O)O)cc2)N1C(=O)[C@H]1CC[C@H](CN)CC1` (stereo partly drawn) [Example 20], the figure is 782 nM.
